From patent US20230114264A1, “ACTIVATION OF LYTIC GENES IN CANCER CELLS” (priority 2020, published 2023)

Assays:
EBV lytic genes = test: EBV lytic gene induction in DOX-induced SNU-719 dCas9-Tet-on-PUFa-p65HSF1 gRNA cells; assay type: cell-based, Epstein-Barr virus (EBV)
Excerpt: SNU-719 and C666-1 cancer cells stably expressing HA-dCas9-EGFP and BZLF1 gRNA (A5) were modified to inducibly express 3×FLAG-PUFa-p65HSF1 using a Tetracycline response element (Tet-On). […] This reactivation of EBV slows the growth rate of cells by greater than 4 fold compared with cells treated with ganciclovir (GCV) alone, a current standard treatment for EBV infection (FIGS. 3B, 6A, 8H-8I). Further, treatment with BZLF1 gRNA (A5) decreases C666-1 cell viability by 50-70% relative to control (FIG. 6B).
Producing Tet-on PUFa-p65HSF1 cell line. SNU-719 or C666-1 cells stably expressing HA-dCas9-EGFP were seeded into a 60 mm culture dish at 70% density. The cells were transfected with 1 μg hyPBase (transposase) and 2 μg dox-inducible PUFa-p65HSF1 in a piggyBac vector plasmid through Lipofectamine 2000 reagent (Invitrogen). At 6 hours post-transfection, cell culture medium was exchanged. At 48 hours post-transfection, cells were selected with hygromycin antibiotics.
Producing Tet-on PUFa-p65HSF1 and BZLF1 gRNA (3) cell line. The day prior to transfection, HEK-293FT cells were seeded into a 10 cm culture dish at 70% density. […]. At 6 hours post-transfection, medium was exchanged for fresh. At 48 hours post-transfection, 5 mL of medium containing the lentivirus was collected and centrifuged for 10 minutes at 2,000 rpm to remove cellular debris. The supernatant was filtered through a 0.45-micron filter (Millipore), and the lentivirus was collected. SNU-719 dCas9-Tet-on-PUFa-p65HSF1 or C666-1 dCas9-Tet-on-PUFa-p65HSF1 cells were seeded into a 10 cm culture dish at 60% density per dish, transduced with 7 mL of the BZLF1 gRNA (A5) lentivirus in culture medium supplemented with 8 μg/mL polybrene for 48 hours, and subsequently selected with Puromycin antibiotics on the third day post-transduction.
RNA in-situ hybridization ISH (RNAscope®). Doxycycline (DOX) treated or untreated SNU-719 HA-dCas9-EGFP-Tet-on-PUFa-p65HSF1-BZLF1 gRNA (A5) cells or C666-1-HA-dCas9-Tet-on-PUFa-p65HSF1-BZLF1 gRNA (A5) cells were incubated for 48 hours. […]

C17 cells = test: Growth proliferation, viability, apoptosis, cell cycle and clonogenic assays in C17 cells; assay type: cell-based
Experimental: Growth proliferation assay. SNU-719 HA-dCas9-Tet-on-PUFa-p65HSF1-BZLF1 gRNA (3) or C666-1 HA-dCas9-Tet-on-PUFa-p65HSF1-BZLF1 gRNA (A5) cells were seeded into individual wells of a 96-well plate for at 1×10^5 cells per well the day before being treated with 1 μg/mL DOX and Ganciclovir (GCV). Cells were counted with the cell counting kit-8 (CCK-8, Sigma) at day 6, day 7, and day 8 (FIGS. 8H-8I).
Active caspase-3 analysis. To detect the apoptosis in DOX treated dCas9-Tet on-p65HSF1-BZLF1sgRNA3 SNU719 and C17 cells, active caspase-3 apoptosis kit (BD Pharmingen #550914) was used. Untreated and treated cells were trypsinized and then fixed with fixation buffer in ice for 20 mins and washed with washing buffer twice. Cells were then stained with the PE conjugated rabbit anti active caspase-3 antibody in dark for 30 mins. Stained cells were collected with BD LSRFortessa.
Cell cycle analysis. After 96 hours from induction of DOX, dCas9-Tet on-p65HSF1-BZLF1sgRNA3 SNU719 and C17 cells were trypsinized and then fixed with 75% cold ethanol for 2 hrs at −20° C. Cells were washed three times with cold PBS and then resuspended in PBS containing 100 μg/mL RNase A and 10 μg/mL propidium iodide for 10 min at room temperature. Stained cells were collected with BD LSRFortessa.
Clonogenic assays. Cells were seeded at a density of 500 cells/well in 6-well plates the day before treatment. Then cells were stained with 0.5% crystal violet 14 days after treatment, and at least 50 cells were considered as a single colony

BZLF1 gRNA (A5): BZLF1 gRNA spacer sequence SEQ ID NO: 10, GAAACTATGCATGAGCCAC (chemistry not given here)
expression of other EBV lytic genes including BRLF1 (Rta), BGLF4 (PK), BFRF3 (VCAp18), BMRF1, BdRF1 and BLLF1 (EBV lytic genes; 1 μg/mL DOX): induces the expression of other EBV lytic genes
BZLF1 (Zta) reactivation (EBV lytic genes; 1 μg/mL Doxycycline (DOX), Example 10): reactivated BZLF1 (Zta)
induction of the BZLF1, BGLF4, BMRF1, and BFRF3 (VCAp18) EBV lytic genes (EBV lytic genes; 3×FLAG-PUFa-p65HSF1 induced with 1 μg/mL Doxycycline): reactivated EBV
cell cycle by flow cytometry (C17 cells; DOX induced, FIG. 17B): sub G1 phase accumulation and S phase decrease
cell proliferation, apoptosis and growth of cells in vitro (C17 cells; DOX-induced EBV reactivation): suppressed the cell proliferation, induced apoptosis, and slowed the growth of cells
monolayer colony formation (C17 cells; after DOX induction, FIG. 17E): dramatic suppression
